In patent US20110021765A1, “FLUORINATED LANTHANIDE PROBES FOR 19F MAGNETIC RESONANCE APPLICATIONS” (priority 2007, published 2011):
Values joined by “and” are separate entries in the source; they are usually repeats but may differ in a detail not shown here. Equal entries are not always repeated.

What was measured:
Type in all cases: physicochemical
[1] = 19F NMR chemical shifts and longitudinal relaxation rates at 188 MHz (4.7 T, 298K); settings: for Longitudinal relaxation rate R1 ortho CF3 group / Longitudinal relaxation rate R1 other CF3 group / Limiting 19F chemical shift δF ortho CF3 group / Limiting 19F chemical shift δF other CF3 group if present: 188 MHz; for Limiting 19F chemical shift δF ortho CF3 group / Limiting 19F chemical shift δF other CF3 group if present: pH 5.5, referred to NaCF3CO2 δF −76.1 ppm
Experimental: ^19F NMR chemical shifts and longitudinal relaxation rates for various lanthanide complexes of L^1, L^2 and L^3 were measured at 188 MHz (4.7 T, 298K).

[2] = Comparative 19F NMR signal intensity of paramagnetic complexes versus diamagnetic [YL^1]; settings: 188 MHz (4.7 T), 298K
Experimental: A comparative analysis examined the ortho-CF3 resonance in ^19F NMR spectra of the diamagnetic Y complex, [YL^1] (R1 0.93 s^−1, {linewidth, ω1/2=2 Hz}) and the terbium (R1 90 s^−1 {.ω1/2 90 Hz} and Dy (R1 77 s^−1 {.ω1/2 35 Hz}) analogues. Using a relaxation delay of 3 times T1, ^19F spectra were acquired over a common time interval of 30 minutes (2 mM complex, 188 MHz (4.7 T), 298K, typical S/N ratio per mM was 100:1). The relative signal intensity ratios per mM of complex (peak height times peak width at half height; processing used a line-broadening function equal to half of the observed linewidth, for the given complex resonance) for observation of the major ortho-CF3 resonance in [TmL^1], [DyL^1] and [TbL^1] versus the diamagnetic analogue, [YL^1], were 52:1 22:1 and 41:1 respectively. This is consistent with the ability to increase the number of scans acquired for the faster relaxing CF3 resonance in the paramagnetic complexes.

[3] = 19F NMR pH titration, acid-base equilibrium fit; settings: ratio of integrated 19F intensities −59/−53 and −65/−64 ppm
Text: Solid lines: least-squares fits to the fast-exchange acid-base equilibrium equation for the chemical shift.
Solid lines: least-squares fits to the slow-exchange acid-base equilibrium equation for the NMR line intensity.
The NH group of [Ln.L^4] deprotonates in alkaline conditions, causing the CF3 group of [Ho.L^4] to shift from −55.1 ppm to −36.8 ppm under basic conditions (see FIG. 3). Because the acid-base equilibrium is fast in this system ([…] lanthanide re-coordination involved), only one signal is observed, with the chemical shift corresponding to the weighted average of the chemical shifts of the individual forms.
The higher pKa values in biofluids are the result of additional stabilization of the acidic form by carbonate coordination (see FIG. 4) (S. Aime, A. Barge, M. Botta, J. A. K. Howard, R. Kataky, M. P. Lowe, J. M. Moloney, D. Parker and A. S. de Sousa, Chem. Commun., 1999, 1047); (Y. Bretonniere, M. J. Cann, D. Parker and R. J. Slater, Org. Biomol. Chem., 2004, 2, 1624). The basic form exists as a mixture of two diastereomers, defined by the R or S configuration at the sulphur atom (Scheme 3). The experimental ratio is 6:1 (298 K, pH=8), resonating at −98 and −112 ppm respectively. […]

[4] = Eu luminescence emission intensity ratio versus pH; settings: 298K, H2O, 0.1 M NaCl
[5] = N-protonated complex, pH 5.5, 188 MHz

| δF ortho CF3 group, N-protonated complex (value in parentheses) [1, 5] [ppm] | δF other CF3 group, N-protonated complex (value in parentheses) [1, 5] [ppm] | R1 ortho CF3 group, N-protonated complex (value in parentheses) [1, 5] [s⁻¹] | R1 other CF3 group, N-protonated complex (value in parentheses) [1, 5] [s⁻¹] | Complex protonation constant pKMLH [3] | Apparent protonation constant from Eu emission band intensity ratio [4] | SMILES | Longitudinal relaxation rate R1 ortho CF3 group ([1]; pH 5.5) | Longitudinal relaxation rate R1 other CF3 group ([1]; pH 5.5) [s⁻¹] | Limiting 19F chemical shift δF ortho CF3 group [1] [ppm] | Limiting 19F chemical shift δF other CF3 group if present [1] [ppm] | Linewidth ω1/2 of ortho-CF3 resonance [2] [Hz] | Longitudinal relaxation rate R1 ortho CF3 group ([1]; pH 5.5, listed as yttrium (III) complex of ligand L^1) [s⁻¹] |
| --- | --- | --- | --- | --- | --- | --- | --- | --- | --- | --- | --- | --- |
| −59 | −64 | – | – | – | – | O=C([O-])CN1CCN(CC[N-]S(=O)(=O)c2cc(C(F)(F)F)ccc2C(F)(F)F)CCN(CC(=O)[O-])CCN(CC(=O)[O-])CC1.[Tb+3] [[TbL^2]^−] | 71 s⁻¹ | 23 | −159 | −45 | – | – |
| – | – | – | – | – | – | O=C([O-])CN1CCN(CC(=O)[O-])CCN(CC(=O)Nc2ccc(C(F)(F)F)cc2C(F)(F)F)CCN(CC(=O)[O-])CC1.[Yb+3] [[YbL^1]] | 4.6 s⁻¹ | 1.7 | −65.4 | −59.6 | – | – |
| – | – | – | – | – | – | O=C([O-])CN1CCN(CC(=O)[O-])CCN(CC(=O)Nc2ccc(C(F)(F)F)cc2C(F)(F)F)CCN(CC(=O)[O-])CC1.[Y+3] [[YL^1]] | 0.93 s⁻¹ and 0.9 s⁻¹ | ~0.9 | −61.3 | −63.1 | 2 | ~0.9 |
| – | – | – | – | – | – | O=C([O-])CN1CCN(CC(=O)[O-])CCN(CC(=O)Nc2ccc(C(F)(F)F)cc2C(F)(F)F)CCN(CC(=O)[O-])CC1.[Tm+3] [[TmL^1]] | 16 s⁻¹ | 5.6 | −79.6 | −55 | – | – |
| −59 | −64 | 2.2 | 1.2 | 5.5 (±0.05) | 5.5 | O=C([O-])CN1CCN(CC[N-]S(=O)(=O)c2cc(C(F)(F)F)ccc2C(F)(F)F)CCN(CC(=O)[O-])CCN(CC(=O)[O-])CC1.[Eu+3] [[EuL^2]^−] | 2.5 s⁻¹ | 1.5 | −53 | −65 | – | – |
